This passage reports IC50, AC50 and EC50 results from ChEMBL document CHEMBL1201862, “PubChem BioAssay data set” (2004).

The source made the active and inactive calls. Cut-off read from the data, not from the text of the source, for most assays here: actives have a measured IC50 and inactives only a lower limit. A value given as a limit tells only on which side of the number the result lay.

Holding throughout (format): functional
Assay [1] addresses 72 kDa type IV collagenase (Homo sapiens, UniProt P08253). Briefly: Dose Response validation of uHTS RPN11 inhibitor hits using a MMP-2 Fluorescence assay.
In assay [2] the target is T1, Replicative DNA helicase DnaB (Mycobacterium tuberculosis, UniProt P9WMR3).
T1 sequence (P9WMR3 whole entry): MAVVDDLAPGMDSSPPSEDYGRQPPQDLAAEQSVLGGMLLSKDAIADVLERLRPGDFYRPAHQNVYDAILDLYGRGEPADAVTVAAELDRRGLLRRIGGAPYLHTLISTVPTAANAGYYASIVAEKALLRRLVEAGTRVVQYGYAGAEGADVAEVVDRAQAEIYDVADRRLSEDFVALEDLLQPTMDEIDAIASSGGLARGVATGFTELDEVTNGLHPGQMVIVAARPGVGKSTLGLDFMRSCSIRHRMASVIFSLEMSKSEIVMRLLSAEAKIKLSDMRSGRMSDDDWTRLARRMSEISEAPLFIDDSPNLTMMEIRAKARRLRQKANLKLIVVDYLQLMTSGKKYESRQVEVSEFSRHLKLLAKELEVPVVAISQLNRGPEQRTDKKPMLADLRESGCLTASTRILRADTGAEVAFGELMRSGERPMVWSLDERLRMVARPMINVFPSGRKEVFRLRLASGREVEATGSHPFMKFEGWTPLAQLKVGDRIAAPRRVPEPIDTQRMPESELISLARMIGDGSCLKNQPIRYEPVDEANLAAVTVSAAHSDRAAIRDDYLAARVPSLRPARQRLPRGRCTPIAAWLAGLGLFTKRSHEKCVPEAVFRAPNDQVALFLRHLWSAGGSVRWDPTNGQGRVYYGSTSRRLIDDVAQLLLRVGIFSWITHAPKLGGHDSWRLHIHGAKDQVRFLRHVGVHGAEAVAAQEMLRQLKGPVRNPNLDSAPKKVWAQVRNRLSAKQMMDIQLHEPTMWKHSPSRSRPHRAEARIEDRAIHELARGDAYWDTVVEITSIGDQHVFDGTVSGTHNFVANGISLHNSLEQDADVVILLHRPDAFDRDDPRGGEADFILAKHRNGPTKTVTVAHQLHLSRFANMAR
Briefly: DnaB intein splicing inhibitors, dose response, biochemical, cell-free fluorescence (AID 449749).

The target of the next assay is T2, Protein RecA (Mycobacterium tuberculosis, UniProt P9WHJ3).
T2 sequence (P9WHJ3 whole entry): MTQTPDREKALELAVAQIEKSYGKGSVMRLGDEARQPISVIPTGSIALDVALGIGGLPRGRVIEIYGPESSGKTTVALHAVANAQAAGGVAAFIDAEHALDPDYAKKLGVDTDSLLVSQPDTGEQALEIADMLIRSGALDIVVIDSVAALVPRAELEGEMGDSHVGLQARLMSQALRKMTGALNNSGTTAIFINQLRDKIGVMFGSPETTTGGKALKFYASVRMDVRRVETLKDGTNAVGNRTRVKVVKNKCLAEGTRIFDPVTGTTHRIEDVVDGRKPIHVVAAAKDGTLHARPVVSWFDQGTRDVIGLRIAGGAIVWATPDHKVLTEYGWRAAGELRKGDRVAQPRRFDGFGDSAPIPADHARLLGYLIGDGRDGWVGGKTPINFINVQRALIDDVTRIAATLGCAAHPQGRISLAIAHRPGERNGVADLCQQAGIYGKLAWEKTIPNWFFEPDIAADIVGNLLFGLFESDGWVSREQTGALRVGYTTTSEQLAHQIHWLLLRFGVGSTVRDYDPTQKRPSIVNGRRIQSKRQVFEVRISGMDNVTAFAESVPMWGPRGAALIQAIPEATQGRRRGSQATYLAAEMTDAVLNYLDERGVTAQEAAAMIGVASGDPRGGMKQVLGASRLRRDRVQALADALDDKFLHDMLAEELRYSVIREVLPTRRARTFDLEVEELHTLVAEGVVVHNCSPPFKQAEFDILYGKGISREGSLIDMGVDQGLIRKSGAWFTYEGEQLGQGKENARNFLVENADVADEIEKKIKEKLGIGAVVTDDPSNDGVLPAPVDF
Briefly: Fluorescence Cell-Free Homogeneous Dose Retest to Identify Inhibitors of RecA-Intein Splicing Activity. [Related pubchem assays (depositor defined):AID2097, AID2223, AID489010, AID492950].

Assay [3] deals with 26S proteasome non-ATPase regulatory subunit 14 (Homo sapiens, UniProt O00487). Kind of assay: inhibition of proteasome subunit RPN11 – biochemical, fluorescence polarization, uHTS hits, confirmation (AID 602368). A general note: Fluorescence polarisation rises when a labelled molecule tumbles more slowly, as on binding a larger partner.
A further assay concerns the target Prothrombin (Bos taurus, UniProt P00735). Kind of assay: thrombin inhibition, dose response, biochemical, fluorescence polarization, uHTS hits (AID 602369).
The target in assay [4] is T3, Sentrin-specific protease 6 (Homo sapiens, UniProt Q9GZR1).
T3 sequence (Q9GZR1 whole entry): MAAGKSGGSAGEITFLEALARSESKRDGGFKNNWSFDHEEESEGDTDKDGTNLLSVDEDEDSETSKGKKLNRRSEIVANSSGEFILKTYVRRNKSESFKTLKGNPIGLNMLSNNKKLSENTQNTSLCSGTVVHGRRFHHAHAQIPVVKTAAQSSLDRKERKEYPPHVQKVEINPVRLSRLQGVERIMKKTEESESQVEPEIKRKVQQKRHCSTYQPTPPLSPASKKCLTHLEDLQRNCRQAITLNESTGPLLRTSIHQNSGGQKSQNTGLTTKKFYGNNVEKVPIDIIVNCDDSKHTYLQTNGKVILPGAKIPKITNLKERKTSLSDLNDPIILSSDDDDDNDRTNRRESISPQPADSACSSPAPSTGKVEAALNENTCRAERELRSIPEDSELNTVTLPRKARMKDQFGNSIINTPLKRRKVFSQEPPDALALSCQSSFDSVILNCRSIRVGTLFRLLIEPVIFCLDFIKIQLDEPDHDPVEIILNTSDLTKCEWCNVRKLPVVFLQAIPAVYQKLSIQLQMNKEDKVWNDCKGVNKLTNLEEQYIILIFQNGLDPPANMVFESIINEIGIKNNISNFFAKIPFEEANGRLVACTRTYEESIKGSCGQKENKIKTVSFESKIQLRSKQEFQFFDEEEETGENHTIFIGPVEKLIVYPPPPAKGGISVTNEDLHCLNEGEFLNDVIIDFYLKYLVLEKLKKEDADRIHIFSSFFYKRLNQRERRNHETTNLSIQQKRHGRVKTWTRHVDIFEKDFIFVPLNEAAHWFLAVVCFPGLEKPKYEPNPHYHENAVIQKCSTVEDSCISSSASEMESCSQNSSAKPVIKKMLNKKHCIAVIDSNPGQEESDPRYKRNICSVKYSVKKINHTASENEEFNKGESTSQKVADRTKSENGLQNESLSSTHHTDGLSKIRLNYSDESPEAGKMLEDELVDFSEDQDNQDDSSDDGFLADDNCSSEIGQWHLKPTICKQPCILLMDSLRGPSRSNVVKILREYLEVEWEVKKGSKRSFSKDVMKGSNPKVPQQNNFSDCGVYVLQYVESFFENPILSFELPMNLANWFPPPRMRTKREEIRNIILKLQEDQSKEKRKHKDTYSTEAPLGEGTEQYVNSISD
Briefly: SAR Analysis of small molecule inhibitors of Sentrin-specific protease 6 (SENP6) using a Luminescent assay. [Related pubchem assays (depositor defined):AID2582, AID2599].

In assay [5] the target is T4, Sentrin-specific protease 8 (Homo sapiens, UniProt Q96LD8).
T4 sequence (Q96LD8 whole entry): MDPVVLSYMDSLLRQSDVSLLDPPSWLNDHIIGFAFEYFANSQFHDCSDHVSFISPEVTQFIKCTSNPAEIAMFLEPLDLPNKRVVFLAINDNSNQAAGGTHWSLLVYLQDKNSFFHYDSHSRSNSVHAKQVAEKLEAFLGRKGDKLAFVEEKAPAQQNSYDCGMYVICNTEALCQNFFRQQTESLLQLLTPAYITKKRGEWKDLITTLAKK
Kind of assay: SENP8 protease inhibitors, SAR follow-up, biochemical, luminescence (AID 504501).

The next assay has as its target T5, Caspase-3 (Homo sapiens, UniProt P42574).
T5 sequence (P42574 whole entry): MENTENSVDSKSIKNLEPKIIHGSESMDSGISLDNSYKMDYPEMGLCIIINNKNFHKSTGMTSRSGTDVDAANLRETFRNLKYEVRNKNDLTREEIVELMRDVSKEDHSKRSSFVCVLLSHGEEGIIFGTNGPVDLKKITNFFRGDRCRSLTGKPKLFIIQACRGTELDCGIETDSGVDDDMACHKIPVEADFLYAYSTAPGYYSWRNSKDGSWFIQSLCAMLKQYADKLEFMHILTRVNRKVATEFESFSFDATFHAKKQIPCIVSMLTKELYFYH
Kind of assay: SAR Analysis of small molecule inhibitors of Sentrin-specific proteases (SENPs) using a Caspase-3 Selectivity assay. [Related pubchem assays (depositor defined):AID2540, AID2599, AID434973, AID489001].

Assay [6] has as its target T6, Sentrin-specific protease 7 (Homo sapiens, UniProt Q9BQF6).
T6 sequence (Q9BQF6 whole entry): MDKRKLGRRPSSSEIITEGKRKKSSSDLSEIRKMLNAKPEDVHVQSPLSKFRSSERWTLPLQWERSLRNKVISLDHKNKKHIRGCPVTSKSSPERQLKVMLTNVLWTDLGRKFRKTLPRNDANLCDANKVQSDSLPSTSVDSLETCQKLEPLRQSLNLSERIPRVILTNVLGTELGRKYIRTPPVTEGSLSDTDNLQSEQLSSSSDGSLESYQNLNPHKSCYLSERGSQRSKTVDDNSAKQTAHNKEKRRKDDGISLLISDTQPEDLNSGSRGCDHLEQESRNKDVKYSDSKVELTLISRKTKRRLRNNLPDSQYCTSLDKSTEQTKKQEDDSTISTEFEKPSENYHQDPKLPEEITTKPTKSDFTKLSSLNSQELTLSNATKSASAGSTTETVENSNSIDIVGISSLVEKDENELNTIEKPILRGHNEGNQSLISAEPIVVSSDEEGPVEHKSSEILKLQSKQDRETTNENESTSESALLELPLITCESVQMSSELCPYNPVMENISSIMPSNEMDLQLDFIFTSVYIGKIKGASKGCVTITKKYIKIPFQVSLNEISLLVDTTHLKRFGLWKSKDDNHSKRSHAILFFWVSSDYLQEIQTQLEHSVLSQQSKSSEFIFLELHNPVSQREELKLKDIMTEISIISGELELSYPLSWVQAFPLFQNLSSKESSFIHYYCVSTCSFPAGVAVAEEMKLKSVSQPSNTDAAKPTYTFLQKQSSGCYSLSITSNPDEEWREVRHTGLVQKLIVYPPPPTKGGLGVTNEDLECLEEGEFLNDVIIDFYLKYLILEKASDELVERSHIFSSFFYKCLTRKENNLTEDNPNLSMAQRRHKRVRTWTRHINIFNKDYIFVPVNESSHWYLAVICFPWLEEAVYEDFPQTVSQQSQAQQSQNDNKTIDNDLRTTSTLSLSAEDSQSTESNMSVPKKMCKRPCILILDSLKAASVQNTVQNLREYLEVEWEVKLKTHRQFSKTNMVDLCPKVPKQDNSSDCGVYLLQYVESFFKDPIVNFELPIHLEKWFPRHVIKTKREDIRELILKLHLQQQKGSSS
Kind of assay: SENP7 protease inhibitors, SAR follow-up, biochemical, luminescence (AID 504497).

Assay [7] addresses T7, Carboxy-terminal domain RNA polymerase II polypeptide A small phosphatase 1 (Homo sapiens, UniProt Q9GZU7).
T7 sequence (Q9GZU7 whole entry): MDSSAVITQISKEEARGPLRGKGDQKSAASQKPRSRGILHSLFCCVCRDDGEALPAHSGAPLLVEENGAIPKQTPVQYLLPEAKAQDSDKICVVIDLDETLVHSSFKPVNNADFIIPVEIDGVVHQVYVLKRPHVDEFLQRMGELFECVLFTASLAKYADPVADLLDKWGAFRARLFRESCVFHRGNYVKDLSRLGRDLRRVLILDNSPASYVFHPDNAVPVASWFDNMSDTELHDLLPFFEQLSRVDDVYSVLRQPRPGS
Kind of assay: inhibitors of CTDSP1, concentration-response testing, biochemical assay, absorbance-based, actives from ultra-high-throughput screening (AID 540297).

72 kDa type IV collagenase, sequence (P08253 whole entry): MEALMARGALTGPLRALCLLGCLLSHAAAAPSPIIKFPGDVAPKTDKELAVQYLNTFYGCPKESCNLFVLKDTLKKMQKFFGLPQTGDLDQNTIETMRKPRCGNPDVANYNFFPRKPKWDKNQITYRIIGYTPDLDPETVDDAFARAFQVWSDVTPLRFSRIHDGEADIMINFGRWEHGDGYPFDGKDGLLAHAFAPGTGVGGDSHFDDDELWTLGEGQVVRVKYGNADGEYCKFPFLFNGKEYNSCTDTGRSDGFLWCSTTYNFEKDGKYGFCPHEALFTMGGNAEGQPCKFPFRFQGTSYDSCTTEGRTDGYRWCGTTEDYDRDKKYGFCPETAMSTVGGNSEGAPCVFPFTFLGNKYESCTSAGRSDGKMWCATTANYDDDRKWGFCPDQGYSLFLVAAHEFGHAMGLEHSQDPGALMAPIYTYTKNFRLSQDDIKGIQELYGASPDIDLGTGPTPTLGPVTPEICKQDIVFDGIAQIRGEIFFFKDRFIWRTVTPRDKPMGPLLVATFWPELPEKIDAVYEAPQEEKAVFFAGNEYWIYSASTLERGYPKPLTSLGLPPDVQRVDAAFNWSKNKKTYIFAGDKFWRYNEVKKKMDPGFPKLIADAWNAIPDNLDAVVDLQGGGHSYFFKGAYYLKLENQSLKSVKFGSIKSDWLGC
26S proteasome non-ATPase regulatory subunit 14, sequence (O00487 whole entry): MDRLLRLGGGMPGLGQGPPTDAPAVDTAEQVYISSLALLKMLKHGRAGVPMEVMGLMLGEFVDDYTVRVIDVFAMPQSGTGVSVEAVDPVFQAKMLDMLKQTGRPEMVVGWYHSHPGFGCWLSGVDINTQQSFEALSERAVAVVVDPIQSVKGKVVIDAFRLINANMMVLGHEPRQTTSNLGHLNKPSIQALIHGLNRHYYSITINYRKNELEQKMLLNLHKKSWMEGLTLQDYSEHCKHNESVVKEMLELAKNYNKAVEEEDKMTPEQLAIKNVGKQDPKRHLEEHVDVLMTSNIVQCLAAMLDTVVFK

As usually defined, the IC50 is the concentration that gives 50% inhibition. The term AC50 denotes the midpoint of the concentration-response curve, whichever way the signal moves. One may read the EC50 as the concentration that produces a half-maximal response. On to `O=C(O)CN1C(=O)/C(=C\c2ccc(OC(=O)c3ccco3)cc2)SC1=S`, for which the IC50 in [1] was > 100 µM (inactive); in assay [3] it was 25.4 µM (active); at Prothrombin, 27.8 µM (active). Besides, in assay [2], the AC50 was 165 µM (active). The EC50 at Protein RecA is 20.3 µM (active).

Take `FC(F)(F)c1ccc(N/N=C/c2c[nH]c3ccccc23)cc1`: the IC50 (in [4]; in assay [5]; on Caspase-3; in [6]) was > 99 µM (inactive) throughout.

Turning to `Cc1ccc(C(=O)CSc2cc(C)nc(=O)[nH]2)cc1`, the IC50 in [1] was 27.9 µM (active); in assay [3], 33.8 µM (active); at Prothrombin, 47.5 µM (active).

As to `COc1ccc(CCC(=O)Nc2ccc(-c3noc(/C=C/c4ccccc4)n3)cc2)cc1`, the IC50 (in assay [4]; in assay [5]; on Caspase-3; in [6]) was > 99 µM (inactive) each time.

Regarding `CCN(CC)c1ccc(/C=N/Nc2nc(N3CCCC3)nc(N3CCCC3)n2)cc1`, the IC50 (in assay [4]; in assay [5]; on Caspase-3; in assay [6]) was > 99 µM (inactive) in each case.

On to `CC(=O)Nc1ccc(/C(C)=N/NC(=O)c2ccc(COc3ccccc3Cl)o2)cc1`, for which the IC50 in assay [1] is > 100 µM (inactive); in assay [7], 7.9 µM (active); in [3], 24.8 µM (active); at Prothrombin, 43.6 µM (active).
